Results on one compound are retold here after ChEMBL document CHEMBL1127898, “The role of oxygen in the photoinduced antiviral activity of hypericin” (1994).

Structures are written as SMILES.

Format in all cases: functional
Assay [1] concerns Equine infectious anemia virus. As to the kind of experiment: Antiviral activity against equine infectious anemia virus (EIAV) in oxygenated condition after 10 min of illumination, using focal immunoassay.
Assay [2] relates to Equine infectious anemia virus. Description: Antiviral activity against equine infectious anemia virus (EIAV) in deoxygenation condition effected by using beta-carotene at a concentration of 32 uM.
In assay [3] the test system is Equine infectious anemia virus. As to the kind of experiment: Antiviral activity against equine infectious anemia virus (EIAV) in deoxygenation condition effected by using beta-carotene at a concentration of 0 uM.
The test system of assay [4] is Equine infectious anemia virus. As to the kind of experiment: Antiviral activity against equine infectious anemia virus (EIAV) in hypoxic condition obtained by passing nitrogen gas, after 0 min of illumination using focal, immunoassay.
Assay [5] relates to Equine infectious anemia virus. As to the kind of experiment: Antiviral activity against equine infectious anemia virus (EIAV) in deoxygenation condition effected by using beta-carotene at a concentration of 80 uM.
In assay [6] the test system is Equine infectious anemia virus. As to the kind of experiment: Antiviral activity against equine infectious anemia virus (EIAV) in hypoxic condition obtained by passing argon gas, after 0 min of illumination, using focal immunoassay.
Assay [7] concerns Equine infectious anemia virus. As to the kind of experiment: Antiviral activity against equine infectious anemia virus (EIAV) in deoxygenation condition effected by using beta-carotene at a concentration of 64 uM.
The subject of assay [8] is Equine infectious anemia virus. As to the kind of experiment: Antiviral activity against equine infectious anemia virus (EIAV) in hypoxic condition obtained by passing argon gas, after 10 min of illumination, using focal immunoassay.
Assay [9] has as its system Equine infectious anemia virus. As to the kind of experiment: Antiviral activity against equine infectious anemia virus (EIAV) in hypoxic condition obtained by passing nitrogen gas, after 10 min of illumination using focal, immunoassay.

For `Cc1cc(O)c2c(=O)c3c(O)cc(O)c4c5c(O)cc(O)c6c(=O)c7c(O)cc(C)c8c1c2c(c34)c(c78)c65` [HYPERICIN], the Infectious virus in assay [1] turned out to be 0 ffu ml-1; in [2], 0 ffu ml-1; in assay [3] it was 0 ffu ml-1; in assay [4], 14500 ffu ml-1; in [5] it was 0 ffu ml-1; in assay [6], 5975 ffu ml-1. Also, the figures for the Infectious virus in assay [7], in [8] and in assay [9] were 0 ffu ml-1, 225 ffu ml-1 and 25 ffu ml-1, respectively.
